We go through four compounds from ChEMBL document CHEMBL5050844 (2019).

The target in experiment [1] is T1, E3 ubiquitin-protein ligase CBL-B (Homo sapiens, UniProt Q13191). The experiment is described as follows: Inhibition of N-terminal Avi-tagged human CBL-B (36 to 427 residues) incubated with 60 nM Src kinase for 1.5 hrs followed by incubation with fluorescently labeled UbcH5B-Ub for 1 hr and measured by TR-FRET assay. The experiment is classed as single protein. A general note: Time-resolved FRET reads energy transfer from a long-lived donor to a nearby acceptor.
T1 sequence (Q13191 whole entry, the tested form may be a part): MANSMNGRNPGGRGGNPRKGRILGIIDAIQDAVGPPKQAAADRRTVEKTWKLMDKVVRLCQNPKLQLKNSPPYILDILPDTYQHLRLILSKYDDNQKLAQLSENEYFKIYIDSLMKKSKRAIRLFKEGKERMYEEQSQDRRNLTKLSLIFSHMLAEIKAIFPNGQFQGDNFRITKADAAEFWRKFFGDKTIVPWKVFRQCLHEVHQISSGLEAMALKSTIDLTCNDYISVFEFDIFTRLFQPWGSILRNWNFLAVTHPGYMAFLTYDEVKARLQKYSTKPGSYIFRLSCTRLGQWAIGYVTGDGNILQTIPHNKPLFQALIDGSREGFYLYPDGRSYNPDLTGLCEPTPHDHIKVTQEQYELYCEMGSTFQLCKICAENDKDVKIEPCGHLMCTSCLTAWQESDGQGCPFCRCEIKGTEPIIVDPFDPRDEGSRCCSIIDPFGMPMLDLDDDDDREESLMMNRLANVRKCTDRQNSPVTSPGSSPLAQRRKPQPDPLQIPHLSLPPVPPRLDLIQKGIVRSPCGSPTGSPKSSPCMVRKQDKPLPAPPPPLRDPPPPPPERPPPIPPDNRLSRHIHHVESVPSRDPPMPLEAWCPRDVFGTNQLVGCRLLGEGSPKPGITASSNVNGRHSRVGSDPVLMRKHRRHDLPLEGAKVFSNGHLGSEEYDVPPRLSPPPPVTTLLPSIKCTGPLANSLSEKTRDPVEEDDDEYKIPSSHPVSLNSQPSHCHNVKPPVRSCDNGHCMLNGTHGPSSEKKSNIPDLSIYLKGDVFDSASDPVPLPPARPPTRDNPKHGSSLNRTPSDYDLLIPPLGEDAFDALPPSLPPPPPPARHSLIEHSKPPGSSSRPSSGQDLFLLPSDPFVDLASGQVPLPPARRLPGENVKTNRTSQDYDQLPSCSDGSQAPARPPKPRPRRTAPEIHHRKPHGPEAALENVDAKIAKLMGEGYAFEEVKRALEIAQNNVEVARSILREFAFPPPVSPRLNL

In experiment [2] the target is T1, E3 ubiquitin-protein ligase CBL-B. The experiment is described as follows: Binding affinity towards N-terminal biotinylated Avi-tagged human CBL-B (36 to 427 residues) measured by surface plasmon resonance assay.
A short description of experiment [3]: Induction of anti-CD3/CD28 antibodies-stimulated human T cell activation at 4 uM assessed fold increase in IL-2 secretion measured by ELISA assay. It is filed as functional, T cell line.
Experiment [4] is described as follows: Induction of anti-CD3/CD28 antibodies-stimulated human T cell activation at 1 uM assessed fold increase in IL-2 secretion measured by ELISA assay. It is filed as functional, T cell line. A general note: An ELISA detects its analyte on a solid surface through an enzyme-linked reagent.
A short description of experiment [5]: Induction of anti-CD3/CD28 antibodies-stimulated human T cell activation at 0.3 uM assessed fold increase in IL-2 secretion measured by ELISA assay. It is filed as functional, T cell line.
The nature of experiment [6]: Induction of anti-CD3 antibodies-stimulated human T cell activation at 8 uM assessed fold increase in IL-2 secretion measured by ELISA assay. Also: reference of the scale not given here. The experiment is classed as functional, T cell line.
Experiment [7] in a line: Induction of anti-CD3 antibodies-stimulated human T cell activation at 1 uM assessed fold increase in IL-2 secretion measured by ELISA assay. Also: reference of the scale not given here. It is filed as functional, T cell line.
Experiment [8] can be described thus: Induction of anti-CD3/CD28 antibodies-stimulated human T cell activation at 4 uM assessed fold increase in CD25 expression measured by ELISA assay. The experiment is classed as functional, T cell line.
Experiment [9] in a line: Induction of anti-CD3/CD28 antibodies-stimulated human T cell activation at 1 uM assessed fold increase in CD25 expression measured by ELISA assay. The experiment is classed as functional, T cell line.
A short description of experiment [10]: Induction of anti-CD3/CD28 antibodies-stimulated human T cell activation at 0.3 uM assessed fold increase in CD25 expression measured by ELISA assay. It is filed as functional, T cell line.
A short description of experiment [11]: Induction of anti-CD3 antibodies-stimulated human T cell activation at 8 uM assessed fold increase in CD25 expression measured by ELISA assay. Also: reference of the scale not given here. It is filed as functional, T cell line.
Experiment [12] in a line: Induction of anti-CD3 antibodies-stimulated human T cell activation at 1 uM assessed fold increase in CD25 expression measured by ELISA assay. Also: reference of the scale not given here. It is filed as functional, T cell line.
The nature of experiment [13]: Induction of anti-CD3 antibodies-stimulated human CD4+ T cell activation in immunocompetent mouse assessed fold increase in CD25 expression at 90 mg/kg, po administered twice a day. Also: reference of the scale not given here. The experiment is classed as functional.
The nature of experiment [14]: Induction of anti-CD3 antibodies-stimulated human CD4+ T cell activation in immunocompetent mouse assessed fold increase in CD25 expression at 135 mg/kg, po administered twice a day. Also: reference of the scale not given here. It is filed as functional.
Experiment [15] is described as follows: Induction of anti-CD3 antibodies-stimulated human CD4+ T cell activation in immunocompetent mouse assessed fold increase in CD25 expression at 180 mg/kg, po administered twice a day. Also: reference of the scale not given here. It is filed as functional.
A short description of experiment [16]: Induction of anti-CD3 antibodies-stimulated human CD8+ T cell activation in immunocompetent mouse assessed fold increase in CD25 expression at 45 mg/kg, po administered twice a day. Also: reference of the scale not given here. The experiment is classed as functional.
Experiment [17] in a line: Induction of anti-CD3 antibodies-stimulated human CD8+ T cell activation in immunocompetent mouse assessed fold increase in CD25 expression at 90 mg/kg, ip administered thrice a day. Also: reference of the scale not given here. The experiment is classed as functional.
Experiment [18] in a line: Induction of anti-CD3 antibodies-stimulated human CD8+ T cell activation in immunocompetent mouse assessed fold increase in CD25 expression at 90 mg/kg, po administered twice a day. Also: reference of the scale not given here. It is filed as functional.
Experiment [19] is described as follows: Induction of anti-CD3 antibodies-stimulated human CD8+ T cell activation in immunocompetent mouse assessed fold increase in CD25 expression at 135 mg/kg, po administered twice a day. Also: reference of the scale not given here. The experiment is classed as functional.
A short description of experiment [20]: Induction of anti-CD3 antibodies-stimulated human CD8+ T cell activation in immunocompetent mouse assessed fold increase in CD25 expression at 180 mg/kg, po administered twice a day. Also: reference of the scale not given here. It is filed as functional.
Experiment [21] is described as follows: Induction of activation of human CD56+ CD3- NK cells co-cultured with human K562 cells in 5:1 ratio and assessed as increase in IFN-gamma secretion at 10 uM measured by ELISA assay. It is filed as functional, Natural killer cell.
The nature of experiment [22]: Induction of activation of human CD56+ CD3- NK cells co-cultured with human K562 cells in 5:1 ratio and assessed as increase in IFN-gamma secretion at 1 uM measured by ELISA assay. It is filed as functional, Natural killer cell.
A short description of experiment [23]: Induction of activation of human CD56+ CD3- NK cells co-cultured with human K562 cells in 1:1 ratio and assessed as increase in IFN-gamma secretion at 10 uM measured by ELISA assay. The experiment is classed as functional, Natural killer cell.
Experiment [24] can be described thus: Induction of activation of human CD56+ CD3- NK cells co-cultured with human K562 cells in 1:1 ratio and assessed as increase in IFN-gamma secretion at 1 uM measured by ELISA assay. It is filed as functional, Natural killer cell.
A short description of experiment [25]: Induction of activation of human CD56+ CD3- NK cells co-cultured with human K562 cells in 5:1 ratio and assessed as increase in TNF-alpha secretion at 10 uM measured by ELISA assay. The experiment is classed as functional, Natural killer cell.
Experiment [26] can be described thus: Induction of activation of human CD56+ CD3- NK cells co-cultured with human K562 cells in 5:1 ratio and assessed as increase in TNF-alpha secretion at 1 uM measured by ELISA assay. It is filed as functional, Natural killer cell.
Experiment [27] is described as follows: Induction of activation of human CD56+ CD3- NK cells co-cultured with human K562 cells in 1:1 ratio and assessed as increase in TNF-alpha secretion at 10 uM measured by ELISA assay. It is filed as functional, Natural killer cell.
Experiment [28] can be described thus: Induction of activation of human CD56+ CD3- NK cells co-cultured with human K562 cells in 1:1 ratio and assessed as increase in TNF-alpha secretion at 1 uM measured by ELISA assay. The experiment is classed as functional, Natural killer cell.
Experiment [29] in a line: Induction of activation of human CD56+ CD3- NK cells co-cultured with human K562 cells in 5:1 ratio and assessed as increase in MIP1beta secretion at 10 uM measured by ELISA assay. The experiment is classed as functional, Natural killer cell.
Experiment [30] in a line: Induction of activation of human CD56+ CD3- NK cells co-cultured with human K562 cells in 5:1 ratio and assessed as increase in MIP1beta secretion at 1 uM measured by ELISA assay. The experiment is classed as functional, Natural killer cell.
Experiment [31] is described as follows: Induction of activation of human CD56+ CD3- NK cells co-cultured with human K562 cells in 1:1 ratio and assessed as increase in MIP1beta secretion at 10 uM measured by ELISA assay. The experiment is classed as functional, Natural killer cell.
Experiment [32] can be described thus: Induction of activation of human CD56+ CD3- NK cells co-cultured with human K562 cells in 1:1 ratio and assessed as increase in MIP1beta secretion at 1 uM measured by ELISA assay. It is filed as functional, Natural killer cell.
The nature of experiment [33]: Induction of anti-CD3 antibodies-stimulated human CD4+ T cell activation in immunocompetent mouse assessed fold increase in CD25 expression at 90 mg/kg, ip administered twice a day. Also: reference of the scale not given here. The experiment is classed as functional.

Consider `Cn1cnnc1C(F)(F)[C@](C)(F)c1cccc(N2Cc3c(cc(CN4CC[C@H](F)C4)cc3C(F)(F)F)C2=O)c1`, for which the IC50 (in general, the concentration needed to halve the response being measured) in [1] is less than 100 nM. Besides, the Kd (as a rule, the free concentration of one partner at which half of the binding sites on the other are occupied at equilibrium, for simple one-to-one binding) in experiment [2] was less than 100 nM. Also, the “fold change (FC)” value in experiment [3] is given as “>=7.5”; in [4], “>=7.5”; in experiment [5] it was 2.51; in experiment [6], “>=0.201”; in experiment [7] it was “>=0.201”; in experiment [8], 1.51. Also, the “fold change (FC)” value in experiment [9] is listed as 1.51; in [10], 1.31; in [11], “>=1.001”; in experiment [12], “>=1.001”; in [13], 1; in experiment [14], 1. Moreover, the “fold change (FC)” value in experiment [15] is given as 1.51; in experiment [16], less than 1; in experiment [17] it was less than 1; in experiment [18], 1; in experiment [19], 1; in [20], 1. The “fold change (FC)” value in experiment [21] is reported as “>=5”; in experiment [22], “>=5”; in experiment [23], “>=5”; in experiment [24] it was 2.01; in experiment [25] it was “>=5”; in [26], 2.01. The “fold change (FC)” value in experiment [27] was 2.01; in experiment [28], 2.01; in experiment [29] it was 2.01; in experiment [30] it was 1.01; in experiment [31], 1.01; in experiment [32], “<=1”.

`C[C@@H]1CN(Cc2cc3c(c(C(F)(F)F)c2)CN(c2cccc(C4(Cc5nncn5C)COC4)c2)C3=O)CCO1` displayed an IC50 in experiment [1] of less than 100 nM. Further, the “fold change (FC)” value in experiment [4] is “>=7.5”; in [5] it was “>=7.5”; in experiment [7], “>=0.201”; in [9] it was 1.31; in experiment [10], 1.31; in experiment [12], “>=1.001”. Also, the “fold change (FC)” value turned out to be 1 in [33], 1.51 in experiment [14], 1 in experiment [16] and 1 in experiment [18].

For `Cn1cnnc1C(F)(F)[C@](C)(F)c1cccc(N2Cc3c(cc(CN4CCC(F)(F)C4)cc3C(F)(F)F)C2=O)c1`, the IC50 in experiment [1] was less than 100 nM. Also, the Kd in [2] is less than 100 nM. Also, the “fold change (FC)” value is listed as “>=7.5” in experiment [3]; 2.51 in [4]; 1.01 in experiment [5]; “>=0.201” in [6]; 0.101 in [7]; 1.31 in [8]. The “fold change (FC)” value is listed as 1.01 in experiment [9]; 1.01 in [10]; “>=1.001” in experiment [11]; 0.801 in [12]; 1 in experiment [13]; 1 in [14]. For the same compound, the “fold change (FC)” value in experiment [15] is 1; in [16], 1; in experiment [17], less than 1; in experiment [18], less than 1; in experiment [19], less than 1; in experiment [20], less than 1. Further, the “fold change (FC)” value in experiment [21] is listed as “>=5”; in experiment [22], 1.01; in experiment [23], “>=5”; in experiment [24], 1.01; in experiment [25] it was 2.01; in experiment [26], 1.01. Besides, the “fold change (FC)” value in experiment [27] worked out at 2.01; in experiment [28] it was 1.01; in experiment [29], 2.01; in experiment [30] it was 1.01; in experiment [31], 2.01; in [32], 1.01.

With `C[C@@H](c1cc2c(c(C(F)(F)F)c1)CN(c1cccc(C3([C@@H](F)c4nncn4C)COC3)c1)C2=O)N1CCC2(CC2)C1` (single isomer, unassigned), the IC50 in experiment [1] was less than 100 nM. For the same compound, the “fold change (FC)” value was “>=7.5” in experiment [4]; “>=7.5” in [5]; “>=0.201” in experiment [7]; 1.31 in experiment [9]; 1.31 in [10]; “>=1.001” in [12]. Also, the “fold change (FC)” value in experiment [33] was 1.51; in [13] it was more than 2.5; in [15], more than 2.5; in experiment [16], 1; in [17] it was 1.51; in [19], 1.51. In [20], the “fold change (FC)” value was 1.51.
